Calls of active or inactive are those of the source.
Legend:
Fatty acid synthase [1] = target: T1, Fatty acid synthase (Homo sapiens, UniProt P49327); experiment: FAS thioesterase domain inhibitors, dose response, biochemical, kinetic fluorescence intensity (AID 624326); format: functional;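 note: rate of fluorescence rise from hydrolysis of a fluorogenic O-methyl fluorescein ester substrate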
Fatty acid synthase [2] = target: T1, Fatty acid synthase; experiment: FAS thioesterase domain inhibitors, dose response, biochemical, endpoint fluorescence intensity, uHTS hits (AID 624327); format: functional;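 note: fluorescence from hydrolysis of an O-methyl fluorescein acyl ester substrate by the enzyme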
[3] = target: T2, Long-chain-fatty-acid--AMP ligase FadD28 (Mycobacterium tuberculosis, UniProt P9WQ59); experiment: Fluorescence polarization aasay to screen for inhibitors that compete for the binding of FadD28 to a bisubstrate Measured in Biochemical System Using Plate Reader - 2147-01_Inhibitor_Dose_CherryPick_Activity.; format: functional, Mycobacterium tuberculosis H37Rv
T2 sequence (P9WQ59 whole entry): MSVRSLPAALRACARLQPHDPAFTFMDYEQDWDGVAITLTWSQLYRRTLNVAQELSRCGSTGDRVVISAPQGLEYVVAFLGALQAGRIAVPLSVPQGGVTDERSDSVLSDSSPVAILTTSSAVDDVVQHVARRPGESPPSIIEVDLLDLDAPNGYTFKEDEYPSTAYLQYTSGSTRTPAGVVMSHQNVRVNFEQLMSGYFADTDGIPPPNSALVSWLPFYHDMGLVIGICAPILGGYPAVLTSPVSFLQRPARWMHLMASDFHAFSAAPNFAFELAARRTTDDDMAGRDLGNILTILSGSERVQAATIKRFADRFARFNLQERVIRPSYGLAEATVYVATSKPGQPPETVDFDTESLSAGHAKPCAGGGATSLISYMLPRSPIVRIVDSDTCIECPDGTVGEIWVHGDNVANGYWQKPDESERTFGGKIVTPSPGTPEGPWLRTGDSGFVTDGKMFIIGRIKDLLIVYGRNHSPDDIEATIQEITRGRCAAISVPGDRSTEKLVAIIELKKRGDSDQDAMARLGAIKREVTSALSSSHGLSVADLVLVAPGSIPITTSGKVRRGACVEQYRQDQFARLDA

[4] = inhibitors of HIV Env-driven cell fusion, dose response, cherry-pick (AID 652057); format: functional, cell-based
[5] = ZM109 Env clade C HIV-1 fusion inhibitors, dose response, HeLa effector, CEM target cells, luciferase, cherry-pick (AID 652058); format: functional, cell-based
Paired box protein Pax-8 = Paired box protein Pax-8 (Homo sapiens, UniProt Q06710); experiment: inhibitors of PAX8-driven TPO luciferase reporter, dose response, RMG-I cells, cherry-pick (AID 687027); format: functional, cell-based;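 note: luciferase reporter driven by Pax8 target thyroperoxidase promoter measured by SteadyGlo luminescence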
P388 = experiment: cells; format: functional; details: Mus musculus
P388/ADR = experiment: cells; format: functional; details: Mus musculus
SN12K1 = experiment: cells; format: functional; details: Homo sapiens
[6] = cytotoxicity in HEK-293T cells, dose response, cytotoxicity control for TCR NF-kB inhibitor project, luminescence, T-cell screen hits (AID 489026); format: functional, cell-based;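 note: cells exposed to compound about 14 hours before the viability readout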
[7] = inhibitors of clade B AD8 Env fusion, dose response, cell-based, cherry-pick (AID 652062); format: functional;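 note: luciferase signal from cell-cell fusion driven by HIV-1 clade B AD8 Env; potency is for inhibitors of fusion seen as a drop in luminescence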

T1 sequence (P49327 whole entry, the tested form may be a part): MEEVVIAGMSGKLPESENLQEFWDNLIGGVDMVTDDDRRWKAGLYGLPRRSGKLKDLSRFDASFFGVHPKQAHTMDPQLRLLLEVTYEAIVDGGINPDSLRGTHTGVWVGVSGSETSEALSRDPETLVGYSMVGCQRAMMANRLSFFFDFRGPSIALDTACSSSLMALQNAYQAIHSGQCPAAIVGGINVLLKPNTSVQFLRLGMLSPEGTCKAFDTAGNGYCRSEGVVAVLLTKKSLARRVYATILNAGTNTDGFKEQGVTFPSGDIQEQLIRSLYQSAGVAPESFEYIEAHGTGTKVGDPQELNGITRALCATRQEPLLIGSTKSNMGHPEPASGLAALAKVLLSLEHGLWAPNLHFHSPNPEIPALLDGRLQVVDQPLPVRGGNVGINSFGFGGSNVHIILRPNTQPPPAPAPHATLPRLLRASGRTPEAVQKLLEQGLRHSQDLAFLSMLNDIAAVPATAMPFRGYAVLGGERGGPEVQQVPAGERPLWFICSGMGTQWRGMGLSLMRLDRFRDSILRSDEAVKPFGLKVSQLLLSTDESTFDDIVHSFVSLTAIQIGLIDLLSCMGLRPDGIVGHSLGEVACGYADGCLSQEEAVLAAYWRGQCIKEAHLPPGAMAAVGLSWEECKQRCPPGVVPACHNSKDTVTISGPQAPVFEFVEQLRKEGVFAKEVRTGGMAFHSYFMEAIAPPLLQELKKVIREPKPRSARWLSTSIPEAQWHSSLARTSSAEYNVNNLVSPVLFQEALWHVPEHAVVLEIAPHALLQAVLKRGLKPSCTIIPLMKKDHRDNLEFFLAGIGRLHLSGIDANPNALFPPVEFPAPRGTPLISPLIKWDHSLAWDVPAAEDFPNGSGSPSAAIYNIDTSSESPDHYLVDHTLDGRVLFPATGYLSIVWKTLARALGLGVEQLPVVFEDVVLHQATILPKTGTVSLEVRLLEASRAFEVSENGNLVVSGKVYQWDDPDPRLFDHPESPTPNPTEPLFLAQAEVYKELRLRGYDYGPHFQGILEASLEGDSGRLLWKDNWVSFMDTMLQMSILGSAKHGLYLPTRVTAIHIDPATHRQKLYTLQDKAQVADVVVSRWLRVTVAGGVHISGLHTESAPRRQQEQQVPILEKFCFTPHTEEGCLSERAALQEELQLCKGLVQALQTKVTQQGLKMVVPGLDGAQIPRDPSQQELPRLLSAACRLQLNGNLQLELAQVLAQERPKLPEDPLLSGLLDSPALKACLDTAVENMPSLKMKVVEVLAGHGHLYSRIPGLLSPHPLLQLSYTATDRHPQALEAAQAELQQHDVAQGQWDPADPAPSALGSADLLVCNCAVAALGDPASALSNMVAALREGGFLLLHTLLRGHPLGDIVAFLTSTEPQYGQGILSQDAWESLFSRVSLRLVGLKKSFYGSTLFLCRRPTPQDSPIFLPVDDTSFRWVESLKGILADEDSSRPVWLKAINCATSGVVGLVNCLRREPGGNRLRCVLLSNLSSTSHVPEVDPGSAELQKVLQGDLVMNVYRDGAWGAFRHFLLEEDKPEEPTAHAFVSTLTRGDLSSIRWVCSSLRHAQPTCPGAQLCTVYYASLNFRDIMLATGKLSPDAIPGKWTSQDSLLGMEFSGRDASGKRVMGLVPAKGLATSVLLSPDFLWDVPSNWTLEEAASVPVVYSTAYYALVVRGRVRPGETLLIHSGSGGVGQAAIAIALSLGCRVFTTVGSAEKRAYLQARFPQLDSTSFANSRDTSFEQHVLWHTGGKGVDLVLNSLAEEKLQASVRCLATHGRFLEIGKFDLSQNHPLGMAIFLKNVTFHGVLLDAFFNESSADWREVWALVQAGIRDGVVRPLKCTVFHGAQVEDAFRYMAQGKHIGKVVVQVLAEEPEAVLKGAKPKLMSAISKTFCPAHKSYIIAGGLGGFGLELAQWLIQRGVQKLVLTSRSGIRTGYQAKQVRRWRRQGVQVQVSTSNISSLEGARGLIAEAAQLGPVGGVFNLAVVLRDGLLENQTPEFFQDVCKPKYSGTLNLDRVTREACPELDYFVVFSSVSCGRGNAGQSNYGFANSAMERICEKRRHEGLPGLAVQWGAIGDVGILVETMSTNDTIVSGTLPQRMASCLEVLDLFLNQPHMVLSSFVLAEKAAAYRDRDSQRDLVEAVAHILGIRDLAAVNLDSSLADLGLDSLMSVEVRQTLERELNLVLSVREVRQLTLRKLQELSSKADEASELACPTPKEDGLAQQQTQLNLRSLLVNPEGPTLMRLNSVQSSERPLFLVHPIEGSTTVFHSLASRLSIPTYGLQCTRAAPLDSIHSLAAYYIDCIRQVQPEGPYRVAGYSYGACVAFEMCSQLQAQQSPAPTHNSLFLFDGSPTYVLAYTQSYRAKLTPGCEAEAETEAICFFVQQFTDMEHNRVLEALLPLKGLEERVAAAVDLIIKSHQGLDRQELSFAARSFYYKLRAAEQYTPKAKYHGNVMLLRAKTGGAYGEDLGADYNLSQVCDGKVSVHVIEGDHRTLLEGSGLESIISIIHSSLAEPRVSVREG
Chain of Paired box protein Pax-8 (Q06710 whole entry): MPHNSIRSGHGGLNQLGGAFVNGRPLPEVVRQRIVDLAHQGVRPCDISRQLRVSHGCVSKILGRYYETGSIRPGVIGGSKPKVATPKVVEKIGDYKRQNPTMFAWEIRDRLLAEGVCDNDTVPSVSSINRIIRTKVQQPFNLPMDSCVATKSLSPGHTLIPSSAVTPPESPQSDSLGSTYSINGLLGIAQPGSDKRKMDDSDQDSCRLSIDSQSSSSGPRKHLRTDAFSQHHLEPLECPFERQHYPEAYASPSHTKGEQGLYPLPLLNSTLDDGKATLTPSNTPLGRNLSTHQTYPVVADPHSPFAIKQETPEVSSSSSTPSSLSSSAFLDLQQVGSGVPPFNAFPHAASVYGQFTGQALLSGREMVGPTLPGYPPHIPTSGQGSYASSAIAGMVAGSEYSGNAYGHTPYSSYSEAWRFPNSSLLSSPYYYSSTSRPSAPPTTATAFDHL

In the case of COc1ccc2[nH]c3c(c2c1)CCN1C(=O)C(CC(=O)NC(C)(C)C)C[C@H](C(=O)N2CCOCC2)[C@@]31CCC1CCCC1 (some centres undefined), the IC50 (Fatty acid synthase [1]) is reported as 7.48 µM (active) and the IC50 (Fatty acid synthase [2]) is reported as 8.32 µM (active).
In the case of COc1ccc(C(=O)Cn2c(=O)oc3ccc(C)cc32)cc1, the AC50 [3] is reported as 36.7 µM (active).
For COc1ccc(NS(=O)(=O)c2cc(NC(=O)COc3ccccc3)ccc2N2CCOCC2)cc1, the AC50 [3] was > 100 µM (inactive).
In the case of O=C(NCCCc1nc2ccccc2[nH]1)c1ccco1, the AC50 [4] is reported as 48.8 µM (active) and the AC50 [5] is reported as 1.61 µM (active).
In the case of CCNc1ncnc2c1cnn2C1CCCO1 (centres undefined), the AC50 [5] is reported as 13.5 µM (active).
In the case of Cc1sc(N2CCN(S(=O)(=O)c3ccc4c(c3)NC(=O)CO4)CC2)nc1-c1ccccc1, the IC50 (Fatty acid synthase [1]) is reported as 4.04 µM (active) and the IC50 (Fatty acid synthase [2]) is reported as 4.15 µM (active).
With C=C(C)c1nc(Oc2ccccc2)nc(Oc2ccccc2)n1 the AC50 (Paired box protein Pax-8) was 3.04 µM (active), the GI50 (P388) was 1.17 µM (inactive) and the GI50 (P388/ADR) was 0.824 µM (active). For the same compound, the GI50 (SN12K1) was 3.35 µM (inactive).
With COc1ccccc1/N=C(\C)C1=C(O)CC(c2ccccc2)CC1=O (centres undefined) the IC50 [6] was > 80 µM (inactive).
In the case of CCOC(=O)N/N=C/c1c(C)nn(-c2cccc(C(F)(F)F)c2)c1Cl, the IC50 [6] is reported as 69.6 µM (inactive).
With C[C@H](CO)N1C[C@H](C)[C@@H](CN(C)C(=O)Nc2cccc(C(F)(F)F)c2)OCc2ccccc2-c2ccccc2C1=O the AC50 [7] was 0.346 µM (active) and the AC50 [4] was < 0.285 µM (active).
For Cc1ccc(-c2ccc3c(c2)O[C@@H](CN(C)Cc2ccncc2)[C@H](C)CN([C@H](C)CO)S3(=O)=O)cc1, the AC50 [7] was 14.2 µM (active) and the AC50 [4] was 10.2 µM (active).
For Cc1cccc(OCC(=O)N/N=C/c2cc([N+](=O)[O-])ccc2N2CCOCC2)c1, the IC50 (Fatty acid synthase [1]) was 8.84 µM (active) and the IC50 (Fatty acid synthase [2]) was 9.22 µM (active).
For OC[C@H]1O[C@@H](n2cnc3cncnc32)[C@H](O)[C@@H]1O [NEBULARINE], the GI50 (P388) was 0.321 µM (active), the GI50 (P388/ADR) was 0.305 µM (active) and the GI50 (SN12K1) was 1.48 µM (inactive).

— ChEMBL document CHEMBL1201862, “PubChem BioAssay data set” (2004)
